Where a SMILES comes first, the peptide text is derived from it.
Experiments:
HPV16-positive cells = assay: Cytotoxicity assay (VITAL FR / live-cell imaging-based) with peptide-specific CD8+ T cells; set-up: species or system human; key: +: cytotox: Ability of peptide-specific T cells to kill HPV16-positive cells.; +*: *highlights data from published resources.; *highlights data from published resources; details: HLA restriction A02
Experimental: The flow cytometry based VITAL FR cytotoxicity assay was used as published by Stanke et al. (Stanke et al., 2010) to assess whether peptide-specific T cells are able to specifically kill HPV-transformed target cells. Briefly, two HLA-A2+ cell lines, a HPV16-negative (HPV16−) control cell line (C33A) and a HPV16-positive (HPV16+) target cell line (CaSki) were fluorescently labeled with either FarRed or CFSE and were co-incubated with peptide-specific CD8+ T cells as effector cells. After 48 h co-incubation, the fluorescently labeled cells were analyzed by flow cytometry to determine the surviving cells and calculate the specific cytolytic function of the effector cells by the ratio of target and control cells.
CaSki and C33A cells were fluorescently labeled with CFSE and FarRed, respectively. Cells of both cell lines were harvested and resuspended in plain RPMI medium at a concentration of 1×10^6 cells/mL. For cell labeling, 5 μM CSFE were added to CaSki cells and 0.25 μM FarRed were added to C33A cells. The cells were incubated at 37° C. and the reaction was stopped after 10 min by addition of 50 mL RPMI with 10% FBS. The cells were centrifuged at 300×g for 5 min, the supernatant was discarded and the cells were resuspended in their cell culture medium. The labeled cells were seeded in T25 cell culture flasks with 1-2×10^6 cells/flask.
On the next day, the labeled CaSki and C33A as well as the epitope-specific semi-long-term T cell lines (described in 1.6) were harvested. CD8+ T cells were isolated from the epitope-specific semi-long-term T cell lines using the MACS CD8+ T cell isolation kit (Miltenyi Biotec) according to the manufacturer's protocol for LS columns. The CD8+ T cells were resuspended in T cell medium and added to wells of a F-bottom 96-well plate in serial dilutions to achieve triplicates of 6×10^4, 3×10^4, 1.5×10^4, 0.75×10^4 and 0.375×10^4 cells per well. The CaSki and C33A cells were mixed 1:1 in T cell medium and 3×10^3 cells were added to each well containing T cells. Thereby effector:target (E:T) ratios of […] were achieved. Additionally, triplicates of mixed target cells without T cells were seeded, which is referred to as E:T 0. After 48 h incubation at 37° C., 5% C02, the cells were harvested and analyzed at a BD FACS Canto™ II analyzer using the BD FACS Diva Software Version 6. The obtained data were analyzed with the FlowJo software Version 10 by applying the same gating strategy to all samples. Subsequently, the equations (1) and (2) given below were applied in Excel (Microsoft Office 2016) to calculate specific killing.
Semi long-term T cell lines were set up to obtain high numbers of T cells, which are required for the analysis of epitope specific cytotoxic T cell responses in VITAL FR cytotoxicity assays. Autologous DCs were generated from PBMCs as described in 1.7 and loaded with the desired HPV16 peptide. PBMCs of the same donor were thawed and resuspended in T cell medium supplemented with rhIL-7 (10 ng/mL) and rhIL-15 (20 ng/mL). 1×10^7 PBMCs/well were seeded to a 24-well plate in a total volume of 1 mL/well. Peptide-loaded DCs were added in a ratio of 50:1 (PBMCs:DCs) in 1 mL rhIL-7 (10 ng/mL) and rhIL-15 (20 ng/mL) supplemented T cell medium to achieve a final volume of 2 mL. The cell cultures were fed with rhIL-2 (final concentration: 40 U/mL) every other day. If the medium turned yellow the feeding was combined with a half medium change with 1 mL fresh IL-2 supplemented T cell medium. After eight days, the peptide stimulation with peptide-loaded DCs was repeated and cultivation was continued. On day 15, the T cell lines were harvested and used for CD8+ T cell isolation and cytotoxicity assays.
In addition to the VITAL FR assay described herein above, a newly established live-cell imaging-based cytotoxicity assay was applied. […]

[1] = system: short-term antigen-specific T cell lines generated from PBMCs; assay: Interferon-γ ELISpot assay on short-term antigen-specific T cell lines; type: cell-based, human; details: for rates of immunoactivation in PBMC samples, CD8 T cell responses and/or numbers of HPV16 positive cell lines presenting the peptide as HLA-complexes: comparison among the peptides in Table 1
[2] = system: peptide-specific T cell cultures; assay: T cell phenotyping and intracellular cytokine staining (IFN-gamma, TNF-alpha); type: cell-based, human; set-up: key: +: cytokine: Immunogenicity of the peptide shown by intracellular cytokine staining (IFN-gamma, TNF-alpha); +*: *highlights data from published resources.; *highlights data from published resources
Experimental: To characterize and quantify the responsive cells upon peptide stimulation, the peptide-specific T cell cultures with positive ELISpot results were further analyzed with T cell phenotyping and intracellular cytokine staining (ICS) assessed by flow cytometry.
The cells of the respective continued short-term T cell culture as well as the DMSO-stimulated and an unresponsive T cell line were harvested into 2 mL reaction tubes and centrifuged at 400×g for 10 min. The supernatant was discarded and the pellet of the unresponsive T cell line was resuspended in 100 μL ELISpot medium and used as unstimulated and unstained control. The pellets of the responsive and the DMSO-stimulated T cell lines were resuspended in 200 μL ELISpot medium and split equally into two wells of a V-bottom 96-well plate. One well of the responsive T cell lines was re-stimulated with 10 μg/mL of its specific peptide while the other well was mock stimulated with 0.1% (v/v) DMSO. As positive control, one well of the DMSO-stimulated T cell line was activated by treatment with 20 ng/ml Phorbol 12-myristate 13-acetate and 1 μM lonomycin. Then, 1:10 diluted GolgiStop (containing monensin) and 1:15 diluted GolgiPlug (containing brefeldin A) were added to all wells to inhibit intracellular transport processes. Monensin inhibits the trans-Golgi transport, while brefeldin A inhibits transport between the ER and the Golgi (Chardin and McCormick, 1999; Mollenhauer et al., 1990). The stimulated cells were incubated for 5 h at standard culture conditions.
After incubation, the cells were resuspended, centrifuged at 400×g for 5 min and the supernatant was discarded. Then, the cells were resuspended in 50 μL cold staining buffer (unstained) or 50 μL cold staining buffer containing the phenotyping antibodies against CD3, CD4, CD8 and the LIVE/DEAD™ Fixable Near-IR Dead Cell Stain (unstimulated and stimulated) and incubated at 4° C. for 30 min. After the surface staining, the cells were washed twice with 200 μL staining buffer and centrifugation at 1400 rpm, followed by fixation with 1% paraformaldehyde (PFA) solution for 15 min at 4° C. All following centrifugation steps were carried out at 1400 rpm for 5 min. After fixation, the cells were again washed twice with 200 μL cold staining buffer and were then resuspended in 100 μL 1× perm/wash buffer diluted in PBS (provided is 10×) for 15 min at 4° C. for cell membrane permeabilization. Subsequently, the plate was centrifuged and the supernatant was discarded. The cells were resuspended in 50 μL perm/wash buffer diluted in PBS (unstained) or 50 μL perm/wash buffer containing the intracellular cytokine antibodies against IFNγ, TNFα and granzyme B (unstimulated and stimulated) for 30 min at 4° C. After intracellular cytokine staining, the cells were washed twice with 200 μL 1× perm/wash buffer. Then 100 μL fix/perm solution (provided in the BD Cytofix/Cytoperm kit) were added per well. After 20 min of incubation at 4° C., the cells of each well were washed twice with 200 μL 1× perm/wash buffer before being resuspended in 100 μL staining buffer and stored at 4° C. overnight.
OneComp eBeads™ (eBeads) and ArC™ Amine Reactive Compensation beads (ArC beads) were stained as compensation controls. For each antibody, 50 μL of the eBeads suspension were stained with the same dilution as used for staining the cells. The ArC beads were stained with 1 μL LIVE/DEAD™ Fixable Near-IR Dead Cell Stain stock solution in 50 μL staining buffer. The beads were incubated at 4° C. for 30 min and were then washed two times with 1 mL staining buffer and centrifugation at 400×g. Finally, the stained beads were resuspended in 400 μL staining buffer, one drop of ArC™ negative beads was added to the labelled ArC beads, and all beads were stored at 4° C. overnight.
On the next day, the samples and the single stained compensation controls were acquired at a BD FACS Canto™ II analyzer using the BD FACS Diva Software Version 6. […]

CSCC[C@H](NC(=O)[C@H](CC(C)C)NC(=O)[C@H](CC(C)C)NC(=O)[C@H](CC(=O)O)NC(=O)[C@H](CCC(=O)O)NC(=O)[C@H](CC(C)C)NC(=O)[C@@H](NC(=O)[C@@H](N)CCCNC(=N)N)[C@@H](C)O)C(=O)NCC(=O)N[C@H](C(=O)N[C@@H](CC(C)C)C(=O)O)[C@@H](C)O [compound 19] (H-RTLEDLLMGTL-OH)
cytotox: Ability of peptide-specific T cells to kill HPV16-positive cells (HPV16-positive cells): +

3 (TIHDIILQCVY; Human papillomavirus 16) [compound 3]
ELISpot: Immungenicity of the peptide shown by IFN-gamma ELISPOT analysis ([1]; HLA restriction A01): +
cytokine: Immunogenicity of the peptide shown by intracellular cytokine staining (IFN-gamma, TNF-alpha) ([2]; HLA restriction A01): +

24 (DLLMGTLGIVC; Human papillomavirus 16) [compound 24]
ELISpot: Immungenicity of the peptide shown by IFN-gamma ELISPOT analysis ([1]; HLA restriction A02): +
cytokine: Immunogenicity of the peptide shown by intracellular cytokine staining (IFN-gamma, TNF-alpha) ([2]; HLA restriction A02): +

62 (NPYAVCDKCLK; Human papillomavirus 16) [compound 62]
ELISpot: Immungenicity of the peptide shown by IFN-gamma ELISPOT analysis ([1]; HLA restriction A11): +
cytokine: Immunogenicity of the peptide shown by intracellular cytokine staining (IFN-gamma, TNF-alpha) ([2]; HLA restriction A11): +

63 (AVCDKCLKFY; Human papillomavirus 16) [compound 63]
ELISpot: Immungenicity of the peptide shown by IFN-gamma ELISPOT analysis ([1]; HLA restriction A03): +
ELISpot: Immungenicity of the peptide shown by IFN-gamma ELISPOT analysis ([1]; HLA restriction B15): +
cytokine: Immunogenicity of the peptide shown by intracellular cytokine staining (IFN-gamma, TNF-alpha) ([2]; HLA restriction A03): +
cytokine: Immunogenicity of the peptide shown by intracellular cytokine staining (IFN-gamma, TNF-alpha) ([2]; HLA restriction A11): +
cytokine: Immunogenicity of the peptide shown by intracellular cytokine staining (IFN-gamma, TNF-alpha) ([2]; HLA restriction B15): +

109 (LQPETTDLY; Human papillomavirus 16) [compound 109]
rates of immunoactivation in PBMC samples, CD8 T cell responses and/or numbers of HPV16 positive cell lines presenting the peptide as HLA-complexes [1]: highest rates of immunoactivation in PBMC samples, to induce the strongest CD8 T cell responses, and/or shown to be presented as HLA-complexes by the highest numbers of HPV16 positive cell lines
cytokine: Immunogenicity of the peptide shown by intracellular cytokine staining (IFN-gamma, TNF-alpha) ([2]; HLA restriction B15): +

4 (YGVCDKCLKFY; Human papillomavirus 16) [compound 4]
ELISpot: Immungenicity of the peptide shown by IFN-gamma ELISPOT analysis ([1]; HLA restriction A01): +
cytokine: Immunogenicity of the peptide shown by intracellular cytokine staining (IFN-gamma, TNF-alpha) ([2]; HLA restriction A01): +

61 (IVYRDGNPY; Human papillomavirus 16) [compound 61]
ELISpot: Immungenicity of the peptide shown by IFN-gamma ELISPOT analysis ([1]; HLA restriction A03): +
ELISpot: Immungenicity of the peptide shown by IFN-gamma ELISPOT analysis ([1]; HLA restriction A11): +
cytokine: Immunogenicity of the peptide shown by intracellular cytokine staining (IFN-gamma, TNF-alpha) ([2]; HLA restriction A03): +
cytokine: Immunogenicity of the peptide shown by intracellular cytokine staining (IFN-gamma, TNF-alpha) ([2]; HLA restriction A11): +

6 (DLQPETTDLY; Human papillomavirus 16) [compound 6]
ELISpot: Immungenicity of the peptide shown by IFN-gamma ELISPOT analysis ([1]; HLA restriction A01): +
cytokine: Immunogenicity of the peptide shown by intracellular cytokine staining (IFN-gamma, TNF-alpha) ([2]; HLA restriction A01): +

92 (HYCYSLYGTTL; Human papillomavirus 16) [compound 92]
ELISpot: Immungenicity of the peptide shown by IFN-gamma ELISPOT analysis ([1]; HLA restriction A24): +
cytokine: Immunogenicity of the peptide shown by intracellular cytokine staining (IFN-gamma, TNF-alpha) ([2]; HLA restriction A24): +

60 (AFRDLCIVYR; Human papillomavirus 16) [compound 60]
ELISpot: Immungenicity of the peptide shown by IFN-gamma ELISPOT analysis ([1]; HLA restriction A11): +
cytokine: Immunogenicity of the peptide shown by intracellular cytokine staining (IFN-gamma, TNF-alpha) ([2]; HLA restriction A11): +

108 (AFRDLCIVY; Human papillomavirus 16) [compound 108]
ELISpot: Immungenicity of the peptide shown by IFN-gamma ELISPOT analysis ([1]; HLA restriction B15): +
rates of immunoactivation in PBMC samples, CD8 T cell responses and/or numbers of HPV16 positive cell lines presenting the peptide as HLA-complexes [1]: highest rates of immunoactivation in PBMC samples, to induce the strongest CD8 T cell responses, and/or shown to be presented as HLA-complexes by the highest numbers of HPV16 positive cell lines
cytokine: Immunogenicity of the peptide shown by intracellular cytokine staining (IFN-gamma, TNF-alpha) ([2]; HLA restriction B15): +

65 (VCDKCLKFYSK; Human papillomavirus 16) [compound 65]
ELISpot: Immungenicity of the peptide shown by IFN-gamma ELISPOT analysis ([1]; HLA restriction A11): +
cytokine: Immunogenicity of the peptide shown by intracellular cytokine staining (IFN-gamma, TNF-alpha) ([2]; HLA restriction A11): +

101 (NIRGRWTGRCM; Human papillomavirus 16) [compound 101]
ELISpot: Immungenicity of the peptide shown by IFN-gamma ELISPOT analysis ([1]; HLA restriction B07): +
ELISpot: Immungenicity of the peptide shown by IFN-gamma ELISPOT analysis ([1]; HLA restriction B15): +
cytokine: Immunogenicity of the peptide shown by intracellular cytokine staining (IFN-gamma, TNF-alpha) ([2]; HLA restriction B07): +
cytokine: Immunogenicity of the peptide shown by intracellular cytokine staining (IFN-gamma, TNF-alpha) ([2]; HLA restriction B15): +

89 (HYNIVTFCC; Human papillomavirus 16) [compound 89]
ELISpot: Immungenicity of the peptide shown by IFN-gamma ELISPOT analysis ([1]; HLA restriction A24): +
cytokine: Immunogenicity of the peptide shown by intracellular cytokine staining (IFN-gamma, TNF-alpha) ([2]; HLA restriction A24): +

115 (FAFRDLCIVY; Human papillomavirus 16) [compound 115]
ELISpot: Immungenicity of the peptide shown by IFN-gamma ELISPOT analysis ([1]; HLA restriction B15): +
cytokine: Immunogenicity of the peptide shown by intracellular cytokine staining (IFN-gamma, TNF-alpha) ([2]; HLA restriction B15): +

99 (RPRKLPQLCTE; Human papillomavirus 16) [compound 99]
ELISpot: Immungenicity of the peptide shown by IFN-gamma ELISPOT analysis ([1]; HLA restriction B07): +
cytokine: Immunogenicity of the peptide shown by intracellular cytokine staining (IFN-gamma, TNF-alpha) ([2]; HLA restriction B07): +

74 (DLLIRCINCQK; Human papillomavirus 16) [compound 74]
ELISpot: Immungenicity of the peptide shown by IFN-gamma ELISPOT analysis ([1]; HLA restriction A11): +
cytokine: Immunogenicity of the peptide shown by intracellular cytokine staining (IFN-gamma, TNF-alpha) ([2]; HLA restriction A11): +
